We go through 5 compounds from patent US6485924B2, “Method for identifying inhibitors of cytokinesis” (Boehringer Ingelheim International GmbH, priority 1999, dated 2002).

Bounds are passed on as bounds.

For experiment [1], the target named is T1, XSepA (Xenopus laevis, UniProt Q9DE33).
T1 construct: made in house; host or cells: E. coli BL21(DE3)
T1 sequence (Q9DE33 1-356): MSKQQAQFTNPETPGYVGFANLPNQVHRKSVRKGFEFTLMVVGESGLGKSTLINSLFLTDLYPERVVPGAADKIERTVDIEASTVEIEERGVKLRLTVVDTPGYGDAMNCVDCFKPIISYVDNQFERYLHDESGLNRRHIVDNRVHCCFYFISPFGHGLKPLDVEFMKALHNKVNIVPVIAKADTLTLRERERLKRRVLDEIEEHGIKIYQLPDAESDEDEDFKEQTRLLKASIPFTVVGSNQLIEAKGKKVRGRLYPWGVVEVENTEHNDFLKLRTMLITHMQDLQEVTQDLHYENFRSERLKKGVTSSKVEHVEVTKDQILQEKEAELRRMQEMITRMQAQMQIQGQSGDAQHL
As to the kind of experiment: Filament assembly / polymerization followed by immunofluorescence microscopy. It counts as biochemical. Conditions: for length of the lag phase of polymerization: 1 mg/ml XSepA, 0.1 mM nucleotide; for critical concentration for XSepA polymerization: 30 min incubation with nucleotide; for filamentous structures observed: control nucleotide used instead of GTP, 30 minutes. How it is done: (§1) Polymerization reactions were carried out in S-buffer in the presence of 5 mM MgCl2 and GTP, GTP-γ-S, GDP or ATP (Gibco). Before nucleotide addition, all samples were pre-cleared in an ultracentrifuge (see below). Aliquots of the reaction were diluted to a final septin concentration of 3.3 μg/ml, and 100 μl drops spotted on glass coverslips for 1 min. Before use, coverslips were soaked with an acetone solution of 0.5% 3-aminopropyltriethoxy-silane (Sigma), washed in acetone and air-dried. Following sample application, the coverslips were washed with 2 ml S-buffer, fixed in cold methanol for 10 min and stained with a polyclonal rabbit antibody raised against an N-terminal peptide of XSepA (M. Glotzer and T. Hyman, in preparation). Secondary antibodies were DTAF-coupled anti-rabbit (Dianova). Images were acquired using a Zeiss Axioplan II microscope and Adobe Photoshop software. Processing and analysis of immunofluorescence images was performed on a Macintosh computer using the public domain NIH Image program (developed at the U.S. National Institutes of Health and available at http://rsb.info.nih.gov/nih-image). Thresholded binary images were generated, and particle length was obtained by measuring the major axis of the best fitting ellipse. Particles with length <0.4 μm were not included in the analysis. Although filaments tended to be straight, this procedure results in underestimation of the length of curved filaments. For sedimentation assays, 20 μl polymerization reactions containing 1 mg/ml septin were pre-cleared in an ultracentrifuge at 279000×g for 15 min at 4° C. Precleared samples were incubated with nucleotide at room temperature for 30 min and spun through a 50% glycerol cushion at 279000×g for 15 min at 25° C.
Filament forming proteins like actin, tubulin and FtsZ polymerize in a nucleotide-dependent fashion. To test whether septin filament assembly is regulated by a similar mechanism, XSepA was incubated with GTP (or its slowly hydrolyzable analogue GTP-γ-S) for 30 minutes and spotted onto glass coverslips. After the coverslips were fixed and stained with anti-XSepA antibody, filamentous structures of up to 7 μm in length were observed. […] FIGS. 2A and 2B depict the GTP-dependent assembly of XSepA and Δcc-SepA filaments. Top panels: Immunostainings of septin preparations (1 mg/ml) incubated with 0.1 mM of the indicated nucleotide for 30 min and diluted in S-buffer prior to fixation. Filamentous structures are observed with both full-length (A) and Δcc-SepA (B) only in the presence of GTP or GTP-γ-S. Bottom panels: Identical reactions were centrifuged through a 50% glycerol cushion at 279000×g for 15 min. Supernatants (S) and pellets (P) were collected and resolved by gel electrophoresis.
To gain insight into the polymerization mechanism of XSepA, the kinetics of the filament formation reaction was followed using immunofluorescence microscopy. At different times after GTP addition, aliquots of septin protein were processed for immunofluorescence as already described. For each time point, individual septin filaments were counted and their lengths measured. The length of all the filaments present in a field was added, and the result (proportional to the polymer mass) was plotted against time. Immunofluorescence images were acquired as described and the length of the filaments was measured (see Methods section). The relative polymer mass was obtained by adding the length of all the filaments present in a field. Each point represents data from four random fields. Only filaments of ≧400 nm in length were considered in the analysis. (A) Time course of filament assembly. At different times following nucleotide addition to 0.1 mM (t=0 min) aliquots of a reaction containing 1 mg/ml XSepA were diluted 300-fold and spotted on coverslips for 1 min before washing and fixation. (B) Determination of the critical concentration for polymerization. […]

Experiment [2] deals with T1, XSepA. Kind of experiment: Filament sedimentation assay through glycerol cushion. The settings on record: 1 mg/ml septin, 0.1 mM nucleotide, 30 min, 279000×g. Type of experiment: biochemical. How it is done:
as §1, with “Although filaments tended to be straight, this procedure results in underestimation of the length of curved filaments. For sedimentation assays, 20 μl polymerization reactions containing 1 mg/ml septin were pre-cleared in an ultracentrifuge at 279000×g for 15 min at 4° C. Precleared samples were incubated with nucleotide at room temperature for 30 min and spun through a 50% glycerol cushion at 279000×g for 15 min at 25° C.” left out

The target in experiment [3] is T2, XSepA filaments (Xenopus laevis, UniProt Q9DE33).
T2 construct: made in house; host or cells: E. coli BL21(DE3)
T2 sequence (Q9DE33 1-356): T1 sequence (Q9DE33 1-356)
Kind of experiment: Dilution-induced filament depolymerization. Type of experiment: biochemical. Conditions: 20 min after 600-fold dilution into buffer. The method, then: To gain insight into the polymerization mechanism of XSepA, the kinetics of the filament formation reaction was followed using immunofluorescence microscopy. At different times after GTP addition, aliquots of septin protein were processed for immunofluorescence as already described. For each time point, individual septin filaments were counted and their lengths measured. The length of all the filaments present in a field was added, and the result (proportional to the polymer mass) was plotted against time. Immunofluorescence images were acquired as described and the length of the filaments was measured (see Methods section). The relative polymer mass was obtained by adding the length of all the filaments present in a field. Each point represents data from four random fields. Only filaments of ≧400 nm in length were considered in the analysis. (A) Time course of filament assembly. […] Polymer content was determined after 30 min incubation. […] In (B) and (C) a curve was fitted to the data points where filaments were detected.
To address the role of GTP hydrolysis in septin filament formation, the polymerization kinetics of XSepA in the presence of a slowly hydrolysable GTP analogue, GTP-γ-S, was studied. […] To investigate directly whether nucleotide hydrolysis promotes disassembly, filaments assembled with GTP or GTP-γ-S were diluted 600-fold into buffer and depolymerization rates were determined. […]

For experiment [4], the target named is T1, XSepA. Kind of experiment: GTP filter binding assay. The settings on record: for ability of cold nucleotide to compete with the radiolabeled guanine nucleotide: data not shown. How it is done:
For GTP binding, 1 μM of XSepA (or Δcc-SepA) in S-buffer was incubated with 0.1 mg/ml BSA, 5 mM MgCl2 and 4.4 μM ^3H-GTP (4.60 Ci/mmol, 1 mCi/ml; Amersham). At time intervals, aliquots of the reaction were diluted in cold wash buffer (20 mM Tris pH 8.0, 50 mM NaCl, 5 mM MgCl2) and filtered through pre-wetted nitrocellulose circles (Schleicher and Schuell) Filters were washed with 10 ml of wash buffer, dried, and the retained radioactivity quantified in a scintillation counter.
The ability of recombinant XSepA to bind guanine nucleotide was tested by using a filter binding assay. […] To assay for GTP hydrolysis, XSepA was incubated with limiting amounts of [α-^32P]GTP and the production of radioactive GDP was followed by thin layer chromatography. […] FIGS. 1C and 1D show time courses of GTP binding and hydrolysis by XSepA and Δcc-SepA. Recombinant protein (1 μM) was incubated with an excess of [^3H]GTP to quantify nucleotide binding, or with sub-stoichiometric amounts of [α-^32P]GTP to detect nucleotide hydrolysis. (C) GTP binding as determined by a filter-binding assay. (D) TLC plate showing generation of radioactive GDP from GTP. Aliquots of the reaction were quenched in a denaturing solution at the indicated time, and the nucleotide content was resolved by TLC. BSA (0.1 mg/ml) was used as a negative control in both experiments.)

The conditions of experiment [5]: literature values; tubulin: pure, in glycerol buffer; cited from earlier work.

For `Nc1nc2c(ncn2[C@@H]2O[C@H](COP(=O)(O)OP(=O)(O)OP(O)(O)=S)[C@@H](O)[C@H]2O)c(=O)[nH]1` [GTP-γ-S], in experiment [1], the “length of the lag phase of polymerization” value is 3 min and the “critical concentration for XSepA polymerization” value worked out at 0.2 mg/mL. Further, in experiment [2], the “sedimentable fraction of septin after incubation with nucleotide” value is on record as “increased significantly”. Further, in experiment [3], the filaments still present result is “ca. 30 % of their initial level”.

Turning to `Nc1nc2c(ncn2[C@@H]2O[C@H](COP(=O)(O)OP(=O)(O)O)[C@@H](O)[C@H]2O)c(=O)[nH]1` [GDP], in experiment [4], the “ability of cold nucleotide to compete with the radiolabeled guanine nucleotide” value (shortened to “ability of cold nucleotide to compete”) is “not”. The filamentous structures observed result in experiment [1] was “This was not the case”.

Regarding `Nc1ncnc2c1ncn2[C@@H]1O[C@H](COP(=O)(O)OP(=O)(O)OP(=O)(O)O)[C@@H](O)[C@H]1O` [ATP], in experiment [4], the “ability of cold nucleotide to compete” value is listed as “not”. In experiment [1], the filamentous structures observed result is “This was not the case”.

For the compound actin, the “critical concentration for polymerization” value in experiment [5] is roughly 0.2 µM.

In the case of `Nc1nc2c(ncn2[C@@H]2O[C@H](COP(=O)(O)OP(=O)(O)OP(=O)(O)O)[C@@H](O)[C@H]2O)c(=O)[nH]1` [GTP, guanosine triphosphate], in experiment [4], the “ability of cold nucleotide to compete” value is “able to compete”. The GTP binding plateau in experiment [4] (filter binding, excess [3H]GTP) is reported as 0.4-0.5 moles GTP/moles of XSepA. For the same compound, in experiment [4] (limiting concentration of nucleotide, not shown), the “time to essentially complete maximum of nucleotide binding” value is no more than 5 min. Besides, in experiment [1], the “length of the lag phase of polymerization” value is 5 min and the “critical concentration for XSepA polymerization” value came out at 0.5 mg/mL. Besides, the “sedimentable fraction of septin after incubation with nucleotide” value in experiment [2] is recorded as “increased significantly”. For the same compound, the depolymerization after dilution entry in experiment [3] is on record as “essentially complete”.
